Structures are written as SMILES. Where two headings read alike, the source gives them in different places. Bounds are passed on as bounds.

For assay [1], the target named is full-length human PRMT1 isoform 1 (GST-tagged) (Homo sapiens, UniProt Q99873). Briefly: PRMT1 Biochemical Assay (3H-SAM Flashplate, peptide substrate). In a few lines: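 GST-tagged full-length PRMT1 from baculovirus-infected cells, preincubated 30 min at room temperature with compound in 20 mM Bicine pH 7.6, TCEP, BSG, Tween 20. Reaction started with 3H-SAM plus biotinylated peptide, stopped with 300 uM unlabelled SAM. Streptavidin Flashplate capture and scintillation counting; % inhibition curve-fitted for IC50.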
Chain of full-length human PRMT1 isoform 1 (GST-tagged) (Q99873 with tags, fused parts or gaps): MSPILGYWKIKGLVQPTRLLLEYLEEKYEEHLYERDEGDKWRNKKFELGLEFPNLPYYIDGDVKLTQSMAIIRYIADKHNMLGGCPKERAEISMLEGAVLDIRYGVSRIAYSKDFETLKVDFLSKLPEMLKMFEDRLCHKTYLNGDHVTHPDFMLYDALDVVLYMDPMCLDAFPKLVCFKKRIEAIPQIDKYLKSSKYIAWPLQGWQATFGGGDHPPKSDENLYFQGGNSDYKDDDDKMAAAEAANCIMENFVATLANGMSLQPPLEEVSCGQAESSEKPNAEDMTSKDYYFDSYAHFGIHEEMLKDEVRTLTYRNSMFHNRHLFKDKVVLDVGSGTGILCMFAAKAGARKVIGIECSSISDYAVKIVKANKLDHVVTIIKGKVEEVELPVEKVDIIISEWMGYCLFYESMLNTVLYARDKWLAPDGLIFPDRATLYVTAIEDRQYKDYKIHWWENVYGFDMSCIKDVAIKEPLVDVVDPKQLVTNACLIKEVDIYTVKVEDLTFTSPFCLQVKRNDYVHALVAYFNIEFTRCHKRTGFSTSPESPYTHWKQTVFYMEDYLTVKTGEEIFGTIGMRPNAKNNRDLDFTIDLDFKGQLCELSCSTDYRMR

The target in assay [2] is full-length human PRMT6 (Flag- and His-tagged) (Homo sapiens, UniProt Q96LA8). Briefly: PRMT6 Biochemical Assay (3H-SAM Flashplate, peptide substrate). The following applies: read-out: Biochemical IC50 PRMT6. In a few lines:
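Flag/His-tagged full-length human PRMT6 (1 nM) preincubated with compound 30 min at room temperature in Bicine pH 7.6 buffer, then reaction started with 3H-SAM 200 nM plus unlabeled SAM 250 nM and biotinylated H4 36-50 peptide (K44me1) 75 nM; 2% DMSO. Quenched with 400 uM cold SAM; labeled peptide captured on streptavidin Flashplate, counted; % inhibition vs DMSO and 1 mM SAH controls fit by 3- or 4-parameter curve.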

The mark [3] stands for this setting: single experiment or average of multiple experiments.

Chain of full-length human PRMT6 (Flag- and His-tagged) (Q96LA8 with tags, fused parts or gaps): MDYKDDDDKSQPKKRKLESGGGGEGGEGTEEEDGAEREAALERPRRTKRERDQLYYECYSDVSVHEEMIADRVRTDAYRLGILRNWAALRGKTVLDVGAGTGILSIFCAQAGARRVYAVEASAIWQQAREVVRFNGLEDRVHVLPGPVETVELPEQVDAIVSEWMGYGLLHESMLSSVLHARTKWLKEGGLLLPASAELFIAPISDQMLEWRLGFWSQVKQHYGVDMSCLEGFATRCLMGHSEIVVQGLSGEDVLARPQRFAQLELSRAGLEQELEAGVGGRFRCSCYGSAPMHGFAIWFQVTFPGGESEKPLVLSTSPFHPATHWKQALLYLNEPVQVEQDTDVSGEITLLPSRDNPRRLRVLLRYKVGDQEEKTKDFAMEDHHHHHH

Regarding `CCN(C(=O)CCC(C)C)[C@H]1CC[C@H](c2n[nH]cc2CN(C)CCNC)CC1` [Compound 250], the IC50 – broadly, the concentration at which inhibition is half-maximal – in assay [1] was below 100 nM; in assay [1] (setting [3]), 24 nM; in assay [2], below 100 nM; in assay [2] (setting [3]), 14.3 nM.

Turning to `CCN(C(=O)CCC(C)C)[C@H]1CC[C@@H](c2n[nH]cc2CN(C)CCNC)CC1` [Compound 251], the IC50 is below 100 nM in assay [1], 13.1 nM in assay [1] (setting [3]), below 100 nM in assay [2] and 17.1 nM in assay [2] (setting [3]).

As to `CNCCN(C)Cc1c[nH]nc1[C@H]1CC[C@H](N(CCOC)C(=O)CC(C)C)CC1` [Compound 252], the IC50 in assay [1] was below 100 nM; in assay [1] (setting [3]), 30.9 nM; in assay [2] it was below 100 nM; in assay [2] (setting [3]) it was 48.3 nM.

On to `CNCCN(C)Cc1c[nH]nc1[C@H]1CC[C@]2(CCOC2(C)C)CC1` [Compound 253], for which the IC50 is below 100 nM in assay [1], 7.15 nM in assay [1] (setting [3]), below 100 nM in assay [2] and 13.4 nM in assay [2] (setting [3]).

On to `CNCCN(C)Cc1c[nH]nc1[C@H]1CC[C@H](N(CCOC)C(=O)CCC(C)C)CC1` [Compound 254], for which the IC50 was below 100 nM in assay [1], 17.3 nM in assay [1] (setting [3]), below 100 nM in assay [2] and 17.6 nM in assay [2] (setting [3]).

Take `CNCCN(C)Cc1c[nH]nc1C1CCC(C)(C)[C@@H](C(=O)OC)C1` (stereo partly drawn) [Compound 255]: the IC50 in assay [1] was below 100 nM; in assay [1] (setting [3]), 10.2 nM; in assay [2], below 100 nM; in assay [2] (setting [3]), 27.6 nM.

For `CNCCN(C)Cc1c[nH]nc1C1CCC(C)(C)[C@H](C(=O)OC)C1` (stereo partly drawn) [Compound 256], the IC50 in assay [1] is below 100 nM; in assay [1] (setting [3]), 23.7 nM; in assay [2], below 100 nM; in assay [2] (setting [3]) it was 38.5 nM.

For `CNCCN(C)Cc1cnn(C)c1[C@H]1CC[C@]2(CC1)CC(C)(C)CO2` [Compound 257], the IC50 in assay [1] was below 100 nM; in assay [1] (setting [3]) it was 29.8 nM; in assay [2], 101 to 1000 nM; in assay [2] (setting [3]), 153 nM.

With `CNCCN(C)Cc1c[nH]nc1[C@H]1CC[C@H](C(=O)N(C)CCOc2ccccc2)CC1` [Compound 258], the IC50 is below 100 nM in assay [1], 7.59 nM in assay [1] (setting [3]), below 100 nM in assay [2] and 18 nM in assay [2] (setting [3]).

On to `CNCCN(C)Cc1c[nH]nc1[C@H]1CC[C@@H](C(=O)N(C)CCOc2ccccc2)CC1` [Compound 259], for which the IC50 in assay [1] was below 100 nM; in assay [1] (setting [3]), 15.8 nM; in assay [2], below 100 nM; in assay [2] (setting [3]), 33.1 nM.

As to `CNCCN(C)Cc1c[nH]nc1[C@H]1CC[C@@]2(CCC(C)(C)O2)CC1` [Compound 260], the IC50 in assay [1] was below 100 nM; in assay [1] (setting [3]) it was 20.2 nM; in assay [2], below 100 nM; in assay [2] (setting [3]), 83.1 nM.

In the case of `CNCCN(C)Cc1c[nH]nc1[C@H]1CC[C@@H](N(CCOC)C(=O)CCC(C)C)CC1` [Compound 261], the IC50 was below 100 nM in assay [1], 13 nM in assay [1] (setting [3]), below 100 nM in assay [2] and 31.7 nM in assay [2] (setting [3]).

For `CNCCN(C)Cc1c[nH]nc1C1CCC(C)(C)[C@H](C(=O)NCC(C)C)C1` (stereo partly drawn) [Compound 262], the IC50 in assay [1] was below 100 nM; in assay [1] (setting [3]), 33.7 nM; in assay [2], below 100 nM; in assay [2] (setting [3]), 81.2 nM.

For `CNCCN(C)Cc1c[nH]nc1C1CCC(C)(C)[C@@H](C(=O)NCCC(C)C)C1` (stereo partly drawn) [Compound 263, (1S)-2,2-dimethyl-5-[4-({methyl[2-(methylamino)ethyl]amino}methyl)-1H-pyrazol-3-yl]-N-(3-methylbutyl)cyclohexane-1-carboxamide], the IC50 was below 100 nM in assay [1], 19.2 nM in assay [1] (setting [3]), below 100 nM in assay [2] and 63.8 nM in assay [2] (setting [3]).

Turning to `CNCCN(C)Cc1c[nH]nc1C1CCC(C)(C)[C@H](C(=O)NCCOC)C1` (stereo partly drawn) [Compound 264], the IC50 in assay [1] is below 100 nM; in assay [1] (setting [3]), 78 nM; in assay [2] it was 101 to 1000 nM; in assay [2] (setting [3]), 133 nM.

For the compound `CNCCN(C)Cc1c[nH]nc1C1CCC(C)(C)[C@H](C(=O)NCCCOC)C1` (stereo partly drawn) [Compound 265], the IC50 in assay [1] was below 100 nM; in assay [1] (setting [3]) it was 58.8 nM; in assay [2] it was 101 to 1000 nM; in assay [2] (setting [3]) it was 174 nM.

On to `CNCCN(C)Cc1c[nH]nc1C1CCC(C)(C)[C@@H](C(=O)NCC(C)C)C1` (stereo partly drawn) [Compound 266], for which the IC50 in assay [1] is below 100 nM; in assay [1] (setting [3]), 19.3 nM; in assay [2], below 100 nM; in assay [2] (setting [3]) it was 79 nM.

As for `CNCCN(C)Cc1c[nH]nc1C1C[C@H](C(=O)N(C)CC(C)C)C(C)(C)[C@H](C(=O)N(C)CC(C)C)C1` (stereo partly drawn) [Compound 267], the IC50 is 3010 to 10000 nM in assay [1], 3500 nM in assay [1] (setting [3]), 3010 to 10000 nM in assay [2] and at least 10000 nM in assay [2] (setting [3]).

These data come from US11512053B2, “Arginine methyltransferase inhibitors and uses thereof” (priority 2013, dated 2022).
